Marks after values point to notes of the source that are not given here.
What was measured:
[1] = tested on: 14 h overnight fasted diabetic mice; assay: Oral glucose tolerance test (OGTT) after single dose; format: in vivo; settings: for glucose-lowering activity in OGTT compared with sitagliptin (in words): single dose 50 mg/kg; for Relative potency to sitagliptin (OGTT AUC) / AUC in OGTT, % change from diabetic control / AUC in OGTT, Δ from diabetic control / AUC in OGTT, X (arithmetic mean): single oral dose 50 mg/kg; for AUC in OGTT, % change from diabetic control / AUC in OGTT, Δ from diabetic control / AUC in OGTT, X (arithmetic mean): 2 h before glucose loading; for AUC in OGTT, X (arithmetic mean): AUC 0-120 min
Protocol: The oral glucose tolerance test was done in 14 h overnight fasted diabetic mice that were pretreated with a single oral dose of the tested compounds. Each of the tested agents was suspended in sodium carboxymethyl cellulose (CMC-Na) (1% in distilled water) and the dosing volume was adjusted to 10 ml/kg body weight per mouse. Then an oral glucose load was administered (2 g/kg) 2 h after drug treatment. Blood glucose levels were determined using the Accu-check Go® (Roche Diagnostics, Michigan, USA). Blood samples were collected just before drug administration (Fasting Blood glucose), then 2 h after drug treatment and before glucose loading. Blood samples collection was continued at 20, 40, 60 and 120 min intervals after glucose loading.
Animals were distributed between 17 groups (n=6) as follow: • a. Group 1: Animals were 14 h overnight-fasted normoglycemic mice and vehicle-treated (1% CMC-Na) at a dose of 10 ml/kg. • b. Group 2: Overnight fasted diabetic mice received the vehicle (1% CMC-Na) at a dosing volume of 10 ml/kg and served as a negative control. • c. Group 3: Overnight fasted diabetic mice received sitagliptin at a dose of 50 mg/kg in 1% CMC (in a volume of 10 ml/kg) and served as positive control. • a. Groups 4-17: Animals of these groups were overnight fasted diabetic mice received the tested compounds 128, 129, 130, 131, at a dose of 50 mg/kg in 1% CMC (volume of 10 ml/kg).

[2] = tested on: overnight fasted diabetic mice; assay: OGTT after multiple doses (6 consecutive days); format: in vivo; settings: for AUC in OGTT, % change from diabetic control / AUC in OGTT, Δ from diabetic control / Relative potency to sitagliptin (OGTT AUC) / AUC in OGTT, X (arithmetic mean): 50 mg/kg oral for six days; for AUC in OGTT, X (arithmetic mean): 2 h before glucose loading, AUC 0-120 min; for relative potency in OGTT compared with sitagliptin (in words): 6 consecutive days, 50 mg/kg
Protocol: The tested compounds were given daily by oral gavage for 6 consecutive days. On day 6, the overnight fasted diabetic mice were pretreated with the 6th oral dose of the tested compounds. Then an oral glucose was loaded (2 g/kg/10 ml b.w.) 2 h after drug treatment. Blood glucose levels were determined using the Accu-check Go® (Roche Diagnostics, Michigan, USA). Samples were collected just before drug administration (Fasting Blood glucose), then 2 h after drug treatment and before glucose administration. Sample collection was continued at 20, 40, 60 and 120 min intervals after glucose loading.
• b. Group 1: Animals of this group are 14 h overnight-fasted normoglycemic mice received the vehicle (1% CMC-Na) at a dosing volume of 10 ml/kg/day for six consecutive days. • c. Group 2: Overnight-fasted diabetic mice received the vehicle (1% CMC-Na) at a dosing volume of 10 ml/kg/day for six consecutive days and served as a negative control. • d. Group 3: Overnight-fasted diabetic mice received sitagliptin at a dose of 50 mg/kg/day for six consecutive days and served as positive control. • e. Groups 4-17: Animals in these groups were overnight-fasted diabetic mice and received the tested compounds 128, 129, 130, 131, at a dose of 50 mg/kg/day for six consecutive days (volume of 10 ml/kg). Effect on Blood Glucose Level after Introduction of Food for One Hour (≈Meal Tolerance Test) Rational of the Test

[3] = tested on: STZ-diabetic mice; assay: Fasting blood glucose of diabetic mice during six days of treatment; format: in vivo; settings: for activity in controlling the rise of blood glucose levels in streptozotocin diabetic animals (in words) / control of fasting blood sugar compared with sitagliptin and the other compounds (in words): 50 mg/kg/day; for activity in controlling the rise of blood glucose levels in streptozotocin diabetic animals (in words): 6-day interval; for control of fasting blood sugar compared with sitagliptin and the other compounds (in words): 6 days; for Blood glucose level, fasting: 50 mg/kg/day oral, diabetic mice, mean ± SEM
From the text: Our objective was to test the efficacy of the synthesized compounds for their potential to reduce blood glucose in STZ-diabetic mice. The synthesized compounds Nos. 128, 129, 130, 131,140, 142 were expected to act through the inhibition of the DPP-IV enzyme, which is responsible for the degradation of the entero-peptide GLP-I. In turn, GLP-I increases insulin and decreases glucagon release from the pancreatic islets (β and α-cells respectively). So this part of the project was designed to study the effect of the synthesized gliptin simulated compounds on blood glucose levels and their efficacy to increase glucose utilization in diabetic mice through: • a. The effect of the tested compounds in a dose of 50 mg/kg/day on fasting blood glucose blood levels of diabetic mice during six days of treatment. • b. Oral glucose tolerance test (OGTT) through oral glucose loading, 2 h after treatment with single oral dose (50 mg/kg) of the tested compounds in 14 h overnight fasted mice. • c. OGTT through oral glucose loading, 2 h after treatment with the 6th oral dose (50 mg/kg) of the tested compounds in 14 h overnight fasted mice. • d. The effect of the pretreatment with the tested compounds at an oral dose of 50 mg/kg on blood glucose levels, 3 h before and 3 h after meal feeding (feeding for one hour only, then food was removed immediately) in 14 h overnight-fasted diabetic mice.
Blood samples were collected from the tail vein and the blood glucose level was determined. Curves of blood glucose levels (mg/dL) versus the time intervals (min) were constructed and the area under the curves (AUCs) were calculated by the method of calculation embedded in GraphPad Prism® v. 5.0 (GraphPad Software, San Diego, Calif., USA). AUCs of the curves of the different groups were compared and tested for significance against control groups.
All data are presented as means±SEM. Statistical significance was evaluated by analysis of variance (ANOVA) followed by Tukey-Kramer's post hoc test for multiple comparisons. The “t” of the paired data was used to test the significance of the values of the fasting blood glucose compared to the values before treatment. Statistical significance was accepted at a level of p<0.05.

[4] = biological target: DPP-IV enzyme (Homo sapiens (Human), UniProt P27487); assay: DPP-IV inhibition assay (Biovision kit, fluorescence); format: biochemical; settings: read-out: IC50 (DPP4 inhibition)
Protocol: Sitagliptin phosphate monohydrate and the different tested compounds were dissolved in dimethyl sulphoxide (DMSO) and diluted with tris buffer (pH 8.0, 50 mM) to achieve the required concentrations. DPP-IV inhibition assay was conducted using a kit purchased from Biovision (Milpitas, Calif., USA). Briefly, DPP-IV enzyme was diluted with tris buffer and pipetted 50 μl into glass mini-cells. Subsequently the 25 μl of tris buffer, sitagliptin phosphate monohydrate or the tested compounds was added and incubated at 37° C. for 20 min protected from light. Finally, a volume of 25 μl of DPP-IV substrate was added into each tube. The fluorescence generated from hydrolysis of the substrate was read at Ex/Em=360/460 nm using Modulus® single tube multimode reader (Promega, USA). Baseline fluorescence was recorded before incubation (R1) and 20 min after incubation (R2). Percentage inhibition was calculated according to the following equation: […] where, ΔRFU=R2−R1 and EC is the enzyme control (enzyme solution without inhibitor) which is considered 100% activity.
The standard DPP-IV inhibitor drug sitagliptin was employed as positive control. […] Sigmoidal dose-response curves for DPP-IV % inhibition versus log concentrations were plotted using Graphpad prism software, version 5.00 (GraphPad Software, Inc. La Jolla, Calif., USA). The IC50 value corresponds to the concentration of sample needed to inhibit DPP-IV by 50%.

Chain of DPP-IV enzyme (P27487 whole entry, species assumed): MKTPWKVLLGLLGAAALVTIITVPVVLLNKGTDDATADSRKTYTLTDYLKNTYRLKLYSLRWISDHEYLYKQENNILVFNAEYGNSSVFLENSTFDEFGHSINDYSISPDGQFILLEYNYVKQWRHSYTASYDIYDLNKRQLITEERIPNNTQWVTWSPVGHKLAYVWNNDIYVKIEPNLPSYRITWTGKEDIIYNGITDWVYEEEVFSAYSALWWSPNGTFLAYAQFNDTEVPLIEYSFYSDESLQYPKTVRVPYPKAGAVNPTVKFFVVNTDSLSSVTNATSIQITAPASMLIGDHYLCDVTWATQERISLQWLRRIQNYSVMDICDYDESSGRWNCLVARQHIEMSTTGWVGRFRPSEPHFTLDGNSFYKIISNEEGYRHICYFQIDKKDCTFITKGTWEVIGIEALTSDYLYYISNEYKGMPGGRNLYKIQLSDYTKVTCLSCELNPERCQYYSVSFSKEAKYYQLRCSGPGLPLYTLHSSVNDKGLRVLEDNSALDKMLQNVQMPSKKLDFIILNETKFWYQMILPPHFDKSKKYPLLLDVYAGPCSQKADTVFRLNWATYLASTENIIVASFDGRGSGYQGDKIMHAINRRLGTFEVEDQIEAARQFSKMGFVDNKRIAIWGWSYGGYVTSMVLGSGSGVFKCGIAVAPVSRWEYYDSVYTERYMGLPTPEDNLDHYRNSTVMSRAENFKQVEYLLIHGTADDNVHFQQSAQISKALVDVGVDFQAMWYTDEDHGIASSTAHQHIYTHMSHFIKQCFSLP

Structure (SMILES)	glucose-lowering activity in OGTT compared with sitagliptin (in words) [1]	Relative potency to sitagliptin (OGTT AUC) [1]	AUC in OGTT, % change from diabetic control [1] [%]	AUC in OGTT, Δ from diabetic control [1] [mg·min/dL]	AUC in OGTT, X (arithmetic mean) [1]	AUC in OGTT, % change from diabetic control [2] [%]	AUC in OGTT, Δ from diabetic control [2] [mg·min/dL]	Relative potency to sitagliptin (OGTT AUC) [2]	AUC in OGTT, X (arithmetic mean) [2]	relative potency in OGTT compared with sitagliptin (in words) [2]	activity in controlling the rise of blood glucose levels in streptozotocin diabetic animals (in words) [3]	control of fasting blood sugar compared with sitagliptin and the other compounds (in words) [3]	Blood glucose level, fasting ([3]; Day 1) [mg/dL]	IC50 [4] [nM]	control of fasting blood sugar compared with sitagliptin and the other compounds (in words) ([3]; listed as 130)	Blood glucose level, fasting ([3]; Day 4) [mg/dL]	Blood glucose level, fasting ([3]; Day 5) [mg/dL]
O=C(CN1CCn2c(nnc2C(F)(F)F)C1)NC1CCCCC1 [GLP-140]	less potent than sitagliptin	0.69	−16.89	-8626	42439 mg·min/dL	−38.32	-20180	1.01	32475* mg · dL^−1 · min	comparable or higher relative potency than sitagliptin	significant activity	comparable to that of sitagliptin	210.0 ± 12.345	1.84	–	–	–
C[C@H](NC(=O)c1cccc(Cl)c1)C(=O)N1CCn2c(nnc2C(F)(F)F)C1 [GLP-130]	higher glucose-lowering activity than sitagliptin	1.32	−32.01	-16345	34720* mg · dL^−1 · min	−34.11	-17983	0.90	34672* mg · dL^−1 · min	comparable or higher relative potency than sitagliptin	significant activity	most consistent and extended activities	–	0.21	comparable to that of sitagliptin	–	–
N#Cc1cccc(NC(=O)CN2CCn3c(nnc3C(F)(F)F)C2)c1 [GLP-142]	less potent than sitagliptin	0.76	−18.51	-9452	41613 mg·min/dL	−19.4	-10216	0.513	42439* mg · dL^−1 · min	–	significant activity	comparable to that of sitagliptin	230.0 ± 13.769	0.18	–	188.8 ± 25.784	205.4 ± 39.315

— patent publication US10894794B1, “Substituted [1,2,4]triazolo[4,3-a]pyrazines as antidiabetics” (King Abdulaziz University, priority 2019, dated 2021)
